Measured values as given in the METLIN SMRT retention time set (Domingo-Almenara et al. 2019).

Assay: gradient 5% acetonitrile 3 min, to 50% in 2 min, to 85% in 15 min, held 3 min, 100 µL/min
Settings: column: Zorbax Extend-C18 2.1 x 50 mm; eluents: water / acetonitrile, 0.1% formic acid
How it was run: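 Data were gathered over 3 months by HPLC coupled to a quadrupole time-of-flight mass spectrometer, operated in positive and negative ionization mode. Mixtures of ~100 pure standards ran on a Zorbax Extend-C18 column (2.1 × 50 mm, 1.8 μm) at 100 μL/min, with water and acetonitrile each containing 0.1% formic acid and dead and dwell volumes of 40 μL and 900 μL. Retention time was read from adduct peaks picked by computer and checked manually.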

| SMILES | RP-LC retention time |
| --- | --- |
| COc1ccc(NC(=O)Cn2nc3cc(C)nc(-c4ccccc4)n3c2=O)c(OC)c1 | 830 s |
| Nc1nc(OCc2ccccc2)c2[nH]cnc2n1 | 654 s |
| Cc1nc(-c2cc(S(=O)(=O)Nc3cc(F)ccc3F)c(C)s2)sc1C | 1100 s |
| O=C(Cc1nc(-c2ccccc2)n[nH]1)Nc1ccc(Cl)cc1 | 789 s |
| COc1ccc(OC)c(NC(=O)N2CCc3cn(CC(C)C)c4cccc(c34)C2)c1 | 1160 s |
| CSc1ncn(-c2nc(N(C)C)nc(N3CCCCCC3)n2)n1 | 1200 s |
| CCc1ccc(-n2c(CN3CCN(C(=O)NCCCOC)CC3)nc3cccnc32)cc1 | 634 s |
| CCn1c(=O)oc2cc(-c3noc(-c4cc(Cl)ccc4F)n3)ccc21 | 1180 s |
| CCN1C(=O)COc2ccc(-c3noc(-c4ccc(F)cc4)n3)cc21 | 1130 s |
| COCCNC(=O)N1CCCC(COC)C1 (stereo not drawn) | 578 s |
| CCOc1cc2c(cc1OCC)C(c1ccc(OC)c(OC)c1OC)CC(=O)N2 (stereo not drawn) | 836 s |
| O=C(NCCC1=CCCCC1)C(=O)NCC1(c2cccs2)CCCC1 | 1240 s |
| O=C(CN1c2ccc(F)cc2-c2ccccc2S1(=O)=O)Nc1cccnc1 | 681 s |
| O=C(Cn1ccn2nc(-c3ccccc3)c(CO)c2c1=O)Nc1ccccc1C(F)(F)F | 830 s |
| Nc1nc(N)c2ncn(-c3ccccc3)c2n1 | 584 s |
| Fc1ccc(-c2nnc(Cc3nc(-c4ccc(Cl)cc4)no3)o2)cc1 | 1080 s |
| O=C(Nc1ccc2c(c1)C(=O)NCC2)Nc1ccccc1C(F)(F)F | 694 s |
| Cc1cnc(C(=O)N2CCC(N3C(=O)C(OCC4CC4)C34CCOCC4)CC2)cn1 (stereo not drawn) | 618 s |
| COc1cc([C@@H]2c3cc4c(cc3[C@H](O)[C@@H](CO)[C@@H]2C(=O)NC2CCCCC2)OCO4)cc(OC)c1OC | 736 s |
| O=C(Nc1ccc(O)c(C(=O)O)c1)Oc1ccccc1 | 801 s |
| Cc1nn(C)cc1C(=O)Nc1nc2ccccc2[nH]1 | 537 s |
| O=C(Cc1csc(NC(=O)c2ncccn2)n1)Nc1nc2ccccc2s1 | 670 s |
| O=C(N1CCOC(c2ccc(C(F)(F)F)cc2)C1)C1(c2ccc(F)cc2)CC1 (stereo not drawn) | 1020 s |
| CCN1CCCCc2cc(C(=O)N(C)CC(=O)NC)sc21 | 738 s |
| CCc1nc(-c2cccc(-c3noc(CN4C(=O)COc5ccc(Cl)cc54)n3)c2)cs1 | 1240 s |

| SMILES | RP-LC retention time |
| --- | --- |
| Cc1ccc(CN2CC(Cn3c(C)cnc3-c3ccncc3)C2)o1 | 611 s |
| COc1cc(CCC(=O)N2CCNc3ccccc3C2)cc(OC)c1OC | 710 s |
| COc1ccc(CCNC(=O)CCc2nnc3c4cc(-c5ccc(C)c(C)c5)nn4ccn23)cc1OC | 802 s |
| Cc1nc([C@@H]2CN(C(=O)CCc3nc4ccccc4[nH]3)C[C@H]2C(N)=O)n[nH]1 | 506 s |
| Cc1ccc(C)c(NC(=O)CC2COc3ccccc3NC2=O)c1 (stereo not drawn) | 738 s |
| O=C(c1ccc(CS(=O)c2ccc(Cl)cc2)o1)N1CCN(c2ccccn2)CC1 (stereo not drawn) | 582 s |
| O=C(Nc1ccc(F)c(Cl)c1)Nc1c(-c2ccncc2)nc2ccccn12 | 628 s |
| CCC(CC)C(=O)N1CCC(Oc2nccnc2N(C)C)C1 (stereo not drawn) | 749 s |
| COc1cc(NC(=O)CSc2nc3nc(C)cc(C)n3n2)cc(OC)c1 | 726 s |
| NS(=O)(=O)c1ccc(CCNC(=O)c2nc(CCS(=O)(=O)c3ccccc3)no2)cc1 | 692 s |
| CN(CC1CCOC1)C(=O)Nc1ccccc1 (stereo not drawn) | 653 s |
| O=S(=O)(NCc1cccs1)c1cc(-c2nnc(-c3ccccc3)o2)ccc1F | 1070 s |
| O=C1c2ccccc2-c2c1c1ccccc1c(=O)n2Cc1ccccc1 | 1130 s |
| CSc1ncn(-c2nc(N(C)C)nc(N3CCCCC3)n2)n1 | 1090 s |
| Cc1ccc(-c2csc(NC(=O)c3ccccc3Br)n2)cc1 | 1080 s |
| CC(=O)c1ccc(NC(=O)Cn2nc3c4cc(-c5ccc(Cl)cc5)nn4ccn3c2=O)cc1 | 894 s |
| O=C(Nc1nnc(-c2ccc(Br)o2)o1)c1ccc(F)cc1F | 740 s |
| O=C(Nc1ncnc2sccc12)C1COc2ccccc2O1 (stereo not drawn) | 718 s |
| CC(C)CCNC(=O)C1(C)Cn2nc(C(=O)NCCc3ccc(Cl)cc3)cc2C(=O)N1C (stereo not drawn) | 845 s |
| O=C(NCC1CC1)c1c(O)c2sccc2n(Cc2ccccc2)c1=O | 766 s |
| COc1ccc(OCc2noc(CNC(=O)CSc3nc4ccccc4o3)n2)cc1 | 806 s |
| CC(C)CC(=O)N1CCc2cc(CNS(=O)(=O)Cc3ccccc3)ccc21 | 610 s |
| CCc1cccc(C)c1Nc1c(-c2ccc(C(=O)NC(C)C)cc2)nc2cnccn12 | 814 s |
| O=C(CN1CCN(Cc2ccccc2F)C1=O)NCc1ccc(N2CCOCC2)cc1 | 699 s |

The remaining lines, values ahead:

| RP-LC retention time | SMILES |
| --- | --- |
| 980 s | O=C(CCn1nnc2cc(-c3noc(-c4cccc(Br)c4)n3)ccc21)N1CCOCC1 |
| 689 s | CC(C)Cn1c(=O)c(N2CCN(C(=O)c3ccc(Cl)cc3)CC2)nc2ccncc21 |
| 953 s | COc1ccc(C2CCCN2C(=O)Cn2nc(C(F)(F)F)cc2C)cc1 (stereo not drawn) |
| 719 s | Cc1nn(-c2ccc(N3CCOCC3)nn2)c(C)c1CCC(=O)Nc1ccc(F)cc1F |
| 900 s | Cc1cc(C)cc(NC(=O)C2CCN(S(C)(=O)=O)c3cc(C)ccc3O2)c1 (stereo not drawn) |
| 704 s | Cc1nc(-c2cc(S(=O)(=O)NCCCN3CCCC(C)C3)c(C)s2)sc1C (stereo not drawn) |
| 778 s | COc1ccc(OC)c(NC(=O)C2CCN(S(=O)(=O)c3cn(C(C)C)cn3)CC2)c1 |
| 680 s | CC(C)N1C(=O)c2cccnc2Sc2cc(NC(=O)C3CCOC3)ccc21 (stereo not drawn) |
| 915 s | CC(C)NC(=O)C1CCN(c2nc3ccc(-c4ccccc4F)nc3s2)CC1 |
| 628 s | Cc1ccc(NC(=O)CSc2ccc(N3CCCC(C(=O)NC4CC4)C3)nn2)cc1C (stereo not drawn) |
| 810 s | COCCN1C(=O)c2ccccc2C(C(=O)Nc2nc(C)cs2)C12CCCCC2 (stereo not drawn) |
| 649 s | Cc1nc2cc(N3CCC(C(=O)Nc4ccc(N5CCOCC5)cc4)CC3)cnc2nc1C |
| 1010 s | Cc1nn(-c2ccccc2)c(C)c1S(=O)(=O)N1CCC(C(=O)NC2CCCc3ccccc32)CC1 (stereo not drawn) |
| 765 s | O=C(NCc1ccc(Cl)cc1)C1CCN(C(=O)C2Sc3ccccc3NC2=O)CC1 (stereo not drawn) |
| 879 s | CCc1noc(NC(C)=O)c1-c1ccc(OC)c(S(=O)(=O)N2CCCc3ccccc32)c1 |
| 636 s | Cc1cc(NC(=O)CC(=O)Nc2ccc3nc4n(c(=O)c3c2)CCCCC4)no1 |
| 862 s | CCSc1nnc(NC(=O)C2CCN(S(=O)(=O)c3ccc4c(c3)sc(=O)n4C)CC2)s1 |
| 1370 s | CCCc1ccc(S(=O)(=O)N2CCC(c3noc(-c4ccc(C)cc4)n3)CC2)cc1 |
| 735 s | CCS(=O)(=O)c1ccc(C(=O)Nc2nnc(Cc3ccc(Cl)s3)o2)cc1 |
| 598 s | Cc1nnc(-c2ccc3ccn(CC(=O)N4CCN(c5ccccn5)CC4)c3c2)o1 |

| RP-LC retention time | SMILES |
| --- | --- |
| 840 s | CCc1noc(-c2ccnc(-n3ncc(C(=O)N4CCCC4)c3C)c2)n1 |
| 715 s | COc1ccc(C(=O)N2CCC3(CC2)NC(=O)c2cc(F)ccc2N3C)cc1OC |
| 969 s | Cc1ccccc1NC(=O)Nc1ccc2c(c1)CCN2S(=O)(=O)c1ccccc1 |
| 674 s | Cc1nnc(N2CCCC(C(=O)NCc3cccc(Cl)c3)C2)c2nn(-c3ccccc3)c(C)c12 (stereo not drawn) |
| 571 s | Cc1cc(C)cc(NC(=O)CN2CCC(C(=O)Nc3ccc(C(N)=O)cc3)CC2)c1 |
| 867 s | CCOc1ccccc1NC(=O)N1CCN(Cc2nc3cc(Cl)ccc3o2)CC1 |
| 702 s | Cn1nc(N2CCCC(NS(=O)(=O)Cc3ccccc3)C2)ccc1=O (stereo not drawn) |
| 682 s | CCSc1nnc(NC(=O)CSc2nccn2-c2ccc(OC)cc2OC)s1 |
| 1270 s | Cc1oc2ccn(Cc3cccc(F)c3)c(=O)c2c1C(=O)NC1CCCCCC1 |
| 680 s | O=C(NCCC1=CCCCC1)c1ccc(CN2CC(=O)N3CCCCC3C2=O)cc1 (stereo not drawn) |
| 885 s | COCCNC(=O)c1ccc2c(c1)CCCN2S(=O)(=O)c1ccc(Cl)cc1 |
| 631 s | CCCN1C(=O)C2CCC(=O)N2c2ccc(C(=O)NCCCN3CCCC3=O)cc21 (stereo not drawn) |
| 598 s | O=C(c1cccn1-c1nnc(N2CCCC2)s1)N1CCN(c2ccccn2)CC1 |
| 881 s | O=C1/C(=C/c2ccc(Cl)c(Cl)c2)CN(C(=O)CCN2CCOCC2)C/C1=C\c1ccc(Cl)c(Cl)c1 |
| 1020 s | Cc1cc(C)cc(NC(=O)C2CCN(S(C)(=O)=O)c3cc(Cl)ccc3O2)c1 (stereo not drawn) |
| 1160 s | CCC1CCCCN1c1cc(C)nc2nc(-c3ccc(C)cc3)nn12 (stereo not drawn) |
| 855 s | O=C(Cn1nc2c3sc(N4CCCCC4)nc3ncn2c1=O)Nc1cccc(Br)c1 |
| 762 s | CC1CCc2nc3ncn(CC(=O)NC(C)c4ccccc4)c(=O)c3cc2C1 (stereo not drawn) |
| 1020 s | Cc1ccc(NS(=O)(=O)c2ccc(-c3c(C)noc3C)cc2)c(Cl)c1 |
